From ChEMBL document CHEMBL6120946, “From Hit to Lead: Discovery of First-In-Class Furanone Glycoside D228 Derived from Chimonanthus salicifolius for the Treatment of Inflammatory Bowel Disease” (J Med Chem, 2024)
The source made the active and inactive calls. The rule behind the calls is not given here.

Experiments:
Mus musculus [1] = test: Antiinflammatory activity in DSS-induced male C57BL/6 mouse model of inflammatory bowel disease assessed as recovery from body weight loss at 10 mg/kg/day, ip measured after 14 days relative to control; type: functional; settings: time 14 day
Mus musculus [2] = test: Antiinflammatory activity in DSS-induced male C57BL/6 mouse model assessed as effect on JNK phosphorylation level at 50 to 200 microM/Kg by Western blot analysis; type: functional, organism-based; settings: dose 50-200 µM/Kg
Mus musculus [3] = test: Antiinflammatory activity in DSS-induced male C57BL/6 mouse model of inflammatory bowel disease assessed as amelioration of infiltration of inflammatory cells at 50 to 200 microM/Kg by H and E staining based analysis; type: functional, organism-based; settings: dose 50-200 µM/Kg
Mus musculus [4] = test: Antiinflammatory activity in DSS-induced male C57BL/6 mouse model assessed as inhibition of IL-22 level in colon at 50 to 200 microM/Kg; type: functional, organism-based; settings: dose 50-200 µM/Kg
Mus musculus [5] = test: Antiinflammatory activity in DSS-induced male C57BL/6 mouse model of inflammatory bowel disease assessed as decrease in p38 phosphorylation level at 50 to 200 microM/Kg by Western blot analysis; type: functional, organism-based; settings: dose 50-200 µM/Kg
Mus musculus [6] = species on record: Mus musculus; test: Antiinflammatory activity in DSS-induced male C57BL/6 mouse model of inflammatory bowel disease assessed as reduction in p38 level; type: functional, organism-based
Mus musculus [7] = species on record: Mus musculus; test: Antiinflammatory activity in DSS-induced male C57BL/6 mouse model of inflammatory bowel disease assessed as reduction in IRF5 level; type: functional, organism-based
Mus musculus [8] = test: Antiinflammatory activity in DSS-induced male C57BL/6 mouse model of inflammatory bowel disease assessed as amelioration of crypts disruption at 50 to 200 microM/Kg by H and E staining based analysis; type: functional, organism-based; settings: dose 50-200 µM/Kg
Mus musculus [9] = species on record: Mus musculus; test: Antiinflammatory activity in DSS-induced male C57BL/6 mouse model of inflammatory bowel disease assessed as reduction in TLR4 level; type: functional, organism-based
Mus musculus [10] = test: Antiinflammatory activity in DSS-induced male C57BL/6 mouse model assessed as increase in IL-10 level in colon at 50 to 200 microM/Kg; type: functional, organism-based; settings: dose 50-200 µM/Kg
Mus musculus [11] = test: Antiinflammatory activity in DSS-induced male C57BL/6 mouse model of inflammatory bowel disease assessed as amelioration of structural loss of colon at 50 to 200 microM/Kg by H and E staining based analysis; type: functional, organism-based; settings: dose 50-200 µM/Kg
Mus musculus [12] = test: Antiinflammatory activity in DSS-induced male C57BL/6 mouse model of inflammatory bowel disease assessed as downregulation of TRAF6 expression at 50 to 200 microM/Kg by Western blot analysis; type: functional, organism-based; settings: dose 50-200 µM/Kg
Mus musculus [13] = test: Antiinflammatory activity in DSS-induced male C57BL/6 mouse model of inflammatory bowel disease assessed as increase in colon length at 60 mg/kg/day, po via gavage measured upto 14 days relative to control; type: functional; settings: time <= 14 day
Mus musculus [14] = test: Antiinflammatory activity in male C57BL/6 mouse model of inflammatory bowel disease assessed as recovery of DSS-induced body weight loss at 40 mg/kg/day, po via gavage measured after 14 days relative to control; type: functional; settings: time 14 day
[15] = Toxicity in female Kunming mouse assessed as effect on heart to body weight ratio at 100 to 500 mg/kg/day, po measured after 5 weeks; type: organism-based; settings: in vivo, 840 h, dose 100-500 mg/kg/day
[16] = Toxicity in male Kunming mouse assessed as effect on Na inorganic salt level in serum at 100 to 500 mg/kg/day, po measured after 5 weeks; type: organism-based; settings: in vivo, 840 h, dose 100-500 mg/kg/day
[17] = Toxicity in male Kunming mouse assessed as lethal dose administered as po measured after 5 weeks; type: organism-based; settings: in vivo
Mus musculus [18] = test: Antiinflammatory activity in DSS-induced male C57BL/6 mouse model assessed as inhibition of IL-22 level in colon at 50 to 100 microM/Kg; type: functional, organism-based; settings: dose 50-100 µM/Kg
[19] = Toxicity in female Kunming mouse assessed as effect on Na inorganic salt level in serum at 100 to 500 mg/kg/day, po measured after 5 weeks; type: organism-based; settings: in vivo, 840 h, dose 100-500 mg/kg/day
[20] = Toxicity in female Kunming mouse assessed as effect on AST level in serum at 100 to 500 mg/kg/day, po measured after 5 weeks; type: organism-based; settings: in vivo, 840 h, dose 100-500 mg/kg/day
[21] = Metabolic stability in human plasma assessed as half life at pH 7.4 measured upto 60 mins by HPLC-MS analysis; type: ADME, cell-free
[22] = Toxicity in male Kunming mouse assessed as effect on spleen at 100 to 500 mg/kg/day, po measured after 5 weeks by H and E staining based analysis; type: organism-based; settings: in vivo, 840 h, dose 100-500 mg/kg/day
[23] = Toxicity in female Kunming mouse assessed as effect on kidney at 100 to 500 mg/kg/day, po measured after 5 weeks by H and E staining based analysis; type: organism-based; settings: in vivo, 840 h, dose 100-500 mg/kg/day
[24] = Toxicity in male Kunming mouse assessed as effect on ALT level in serum at 100 to 500 mg/kg/day, po measured after 5 weeks; type: organism-based; settings: in vivo, 840 h, dose 100-500 mg/kg/day
[25] = Toxicity in male Kunming mouse assessed as effect on TP level in serum at 100 to 500 mg/kg/day, po measured after 5 weeks; type: organism-based; settings: in vivo, 840 h, dose 100-500 mg/kg/day
[26] = Toxicity in female Kunming mouse assessed as effect on lung to body weight ratio at 100 to 500 mg/kg/day, po measured after 5 weeks; type: organism-based; settings: in vivo, 840 h, dose 100-500 mg/kg/day
[27] = Toxicity in male Kunming mouse assessed as effect on Cl inorganic salt level in serum at 100 to 500 mg/kg/day, po measured after 5 weeks; type: organism-based; settings: in vivo, 840 h, dose 100-500 mg/kg/day
Mus musculus [28] = test: Antiinflammatory activity in DSS-induced male C57BL/6 mouse model of inflammatory bowel disease assessed as downregulation of MyD88 expression at 50 to 100 microM/Kg by Western blot analysis; type: functional, organism-based; settings: dose 50-100 µM/Kg
Mus musculus [29] = test: Antiinflammatory activity in DSS-induced male C57BL/6 mouse model of inflammatory bowel disease assessed as amelioration of crypts disruption at 50 to 100 microM/Kg by H and E staining based analysis; type: functional, organism-based; settings: dose 50-100 µM/Kg
[30] = Genotoxicity in Salmonella typhimurium by Ames test; type: toxicity; settings: salmonella enterica subsp. enterica serovar typhimurium
Mus musculus [31] = test: Antiinflammatory activity in DSS-induced male C57BL/6 mouse model of inflammatory bowel disease assessed as inhibition of MPO expression at 50 to 100 microM/Kg, po by immunohistochemical analysis; type: functional, organism-based; settings: dose 50-100 µM/Kg
[32] = Acute toxicity in male Kunming mouse assessed as effect on body weight loss 5 g/Kg, po measured after 5 weeks; type: organism-based; settings: in vivo, 5000 mg/kg, 840 h
[33] = Toxicity in male Kunming mouse assessed as effect on kidney to body weight ratio at 100 to 500 mg/kg/day, po measured after 5 weeks; type: organism-based; settings: in vivo, 840 h, dose 100-500 mg/kg/day
[34] = Toxicity in female Kunming mouse assessed as effect on liver to body weight ratio at 100 to 500 mg/kg/day, po measured after 5 weeks; type: organism-based; settings: in vivo, 840 h, dose 100-500 mg/kg/day
Mus musculus [35] = test: Antiinflammatory activity in DSS-induced male C57BL/6 mouse model of inflammatory bowel disease assessed as restoration of colon length at 40 mg/kg/day, po via gavage measured after 14 days relative to control; type: functional; settings: time 14 day
[36] = Toxicity in female Kunming mouse assessed as effect on BUN level in serum at 100 to 500 mg/kg/day, po measured after 5 weeks; type: organism-based; settings: in vivo, 840 h, dose 100-500 mg/kg/day
[37] = Toxicity in male Kunming mouse assessed as effect on lung to body weight ratio at 100 to 500 mg/kg/day, po measured after 5 weeks; type: organism-based; settings: in vivo, 840 h, dose 100-500 mg/kg/day
[38] = Acute toxicity in female Kunming mouse assessed as effect on liver 5 g/Kg, po measured after 5 weeks; type: organism-based; settings: in vivo, 5000 mg/kg, 840 h

CC(C)=C1OC(C)=C(O[C@@H]2O[C@H](CO)[C@@H](O)[C@H](O)[C@H]2O)C1=O
Activity (Mus musculus [1]): 37.5% | Activity (Mus musculus [2]): inactive | Activity (Mus musculus [3]): Active | Activity (Mus musculus [4]): Active | Activity (Mus musculus [5]): Active | Activity (Mus musculus [6]): Active | Activity (Mus musculus [7]): Active | Activity (Mus musculus [8]): Active | Activity (Mus musculus [9]): Active | Activity (Mus musculus [10]): Active | Activity (Mus musculus [11]): Active | Activity (Mus musculus [12]): Active | Activity (Mus musculus [13]): 73.4%

CC(=O)OC[C@H]1O[C@@H](OC2=C(C)OC(=C(C)C)C2=O)[C@H](OC(C)=O)[C@@H](OC(C)=O)[C@@H]1OC(C)=O
Activity (Mus musculus [14]): 49.1% | Activity [15]: Non-toxic | Activity [16]: Non-toxic | LD50 at 840 h [17]: > 500 mg/kg | Activity (Mus musculus [18]): Active | Activity [19]: Non-toxic | Activity [20]: Non-toxic | half-life [21]: 27.7 min | Activity [22]: Non-toxic | Activity [23]: Non-toxic | Activity [24]: Non-toxic | Activity [25]: Non-toxic | Activity [26]: Non-toxic | Activity [27]: Non-toxic | Activity (Mus musculus [28]): Active | Activity (Mus musculus [29]): Active | Activity [30]: Non-toxic | Activity (Mus musculus [31]): Active | Activity [32]: Non-toxic | Activity [33]: Non-toxic | Activity [34]: Non-toxic | Activity (Mus musculus [35]): 28.6% | Activity [36]: Non-toxic | Activity [37]: Non-toxic | Activity [38]: Non-toxic
